{"source": "patent US20030005484A1", "about": "“Microbiocidal and pesticidal aromatic aldehydes” (ProGuard, Inc., priority 1994, published 2003)", "key": {"grape phylloxera": {"tested_on": "grape phylloxera", "assay": "grape phylloxera adult and nymphal mortality, root dip", "type": "in vivo, Daktulosphaira vitifoliae", "details": "for mortality of adults and nymphs: root dip, 5 days", "method": "Approximately twenty four eggs of phylloxera were allowed to develop for up to 30 days on standard excised grape roots. At around 30 days, some of the insects were nymphs while others were adults. New eggs were removed during the process. Insect infected roots were submerged into a test formula for 6 seconds then set aside to dry in the air. The percentage of live insects, as defined by growth, oviposition or limb movement, was determined after 5 days. An insect was considered dead if it abandoned its feed site.\nIn an initial test, doses of 20,000 ppm cinnamic aldehyde in water (i.e., 2% cinnamic aldehyde) with various additives were evaluated. Cinnamic aldehyde without any additives produced 83.3% mortality. With-1% Tween 80 added, 91.7% mortality was seen. With 6% NaHCO3 added to a solution of 2% cinnamic aldehyde, 91.7% mortality was seen. With 1% Tween 80 and 6% NaHCO3 added to a solution of 2% cinnamic aldehyde, 100% mortality was seen. Water with no additives produced no mortality, while a positive control solution of 250 ppm malathion in water gave 100% mortality.\nFor nymph and adult tests, eggs were placed on excised root pieces similar to those used for rearing purposes and these were sealed in Petri dishes and held at 24° C. for 18-25 days to allow insects to hatch, initiate feeding sites and develop. At about this time about half the population was in the adult stage. Prior to testing, the population on each root was determined as well as the developmental stage of each insect. Eggs were removed. These root pieces were then dipped for 5 sec into test solutions and allowed to air dry before they were returned to Petri dishes, sealed and placed back in the temperature chamber at 24° C. Mortality was determined after 5 days. Insects were considered dead if they appeared black or desiccated and if they had not developed since the pre-treatment reading and had laid no or few new eggs."}, "[1]": {"tested_on": "silverleaf white fly, Bemisia argentifolii", "assay": "silver leaf white fly Petri dish bioassay", "method": "Activity of cinnamic aldehyde and/or coniferyl aldehyde against black bean aphid, Tetranychus urticae, and silverleaf white fly, Bemisia argentifolii was determined as follows:\nPetri dishes (60 mm) were treated with cinnamic aldehyde at 10-25,000 ppm in 2% Tween 80 and 6% NaHCO3 dissolved in water, and allowed to air dry. Twenty adult silver leaf white fly were put in each dish, (replicate 10 times). The mortality after three hours in contact with a treated plate, was compared to that of silver leaf white fly in petri dishes treated only with diluent. Malathion at 250 ppm was used as a positive control."}}}
{"smiles": "O=C/C=C/c1ccccc1", "note": "[cinnamic aldehyde]", "values": [{"measurement": "mortality of adults and nymphs", "setting": "grape phylloxera; 2% cinnamic aldehyde with 1% Tween 80", "value": 91.7, "unit": "%"}, {"measurement": "mortality of adults and nymphs", "setting": "grape phylloxera; 2% cinnamic aldehyde with 1% Tween 80 and 6% NaHCO3", "value": 100, "unit": "%"}, {"measurement": "mortality of adults and nymphs", "setting": "grape phylloxera; 2% cinnamic aldehyde with 6% NaHCO3", "value": 91.7, "unit": "%"}, {"measurement": "mortality at 20000 ppm", "setting": "grape phylloxera; Daktulosphaira vitifoliae, 120 h, 2% cinnamic aldehyde (20,000 ppm) in water, no additives, roots submerged 6 seconds, read after 5 days, read-out: mortality of adults and nymphs", "value": 83.3, "unit": "%"}, {"measurement": "silver leaf white fly killed", "setting": "[1]; 2500 ppm and above in 2% Tween 80 and 6% NaHCO3, three hours contact with treated dish", "value": 100, "unit": "%"}, {"measurement": "mortality at 10 ppm", "setting": "[1]; Bemisia argentifolii, 3 h", "value": 25, "unit": "%"}, {"measurement": "mortality at 100 ppm", "setting": "[1]; Bemisia argentifolii, 3 h", "value": 50, "unit": "%"}, {"measurement": "Silver Leaf White Fly Mortality (Percent)", "setting": "[1]; Cinnamic Aldehyde (20 g) with NaHCO3", "value": 87.3, "unit": "%"}, {"measurement": "Silver Leaf White Fly Mortality (Percent)", "setting": "[1]; Cinnamic Aldehyde (20 g) with T80(2%) + NaHCO3 (6%)", "value": 100, "unit": "%"}, {"measurement": "Silver Leaf White Fly Mortality (Percent)", "setting": "[1]; Cinnamic Aldehyde (20 g) with T80 (10 g)", "value": 72.1, "unit": "%"}, {"measurement": "Silver Leaf White Fly Mortality (Percent)", "setting": "[1]; Cinnamic Aldehyde (20 g), no additive", "value": 68.6, "unit": "%"}]}
